Calls of active or inactive are those of the source.
Key:
[1] = tested on: P388; experiment: cells; format: functional; details: Mus musculus
[2] = tested on: SN12K1; experiment: cells; format: functional; details: Homo sapiens
[3] = tested on: P388/ADR; experiment: cells; format: functional; details: Mus musculus
[4] = Luminescence Cell-Based Dose Response HTS to Identify Inhibitors of 5'UTR Stem-Loop Driven Prion Protein mRNA Translation in H4 Neuroglioblastoma Cells. [Related pubchem assays: 1827 (Project Summary), 1813 (Primary HTS)]; format: functional
[5] = molecular target: Luciferin 4-monooxygenase (Photinus pyralis, UniProt P08659); experiment: inhibition of purified Photinus pyralis luciferase – biochemical, luminescence, dose response (AID 1891)
Chain of Luciferin 4-monooxygenase (P08659 whole entry): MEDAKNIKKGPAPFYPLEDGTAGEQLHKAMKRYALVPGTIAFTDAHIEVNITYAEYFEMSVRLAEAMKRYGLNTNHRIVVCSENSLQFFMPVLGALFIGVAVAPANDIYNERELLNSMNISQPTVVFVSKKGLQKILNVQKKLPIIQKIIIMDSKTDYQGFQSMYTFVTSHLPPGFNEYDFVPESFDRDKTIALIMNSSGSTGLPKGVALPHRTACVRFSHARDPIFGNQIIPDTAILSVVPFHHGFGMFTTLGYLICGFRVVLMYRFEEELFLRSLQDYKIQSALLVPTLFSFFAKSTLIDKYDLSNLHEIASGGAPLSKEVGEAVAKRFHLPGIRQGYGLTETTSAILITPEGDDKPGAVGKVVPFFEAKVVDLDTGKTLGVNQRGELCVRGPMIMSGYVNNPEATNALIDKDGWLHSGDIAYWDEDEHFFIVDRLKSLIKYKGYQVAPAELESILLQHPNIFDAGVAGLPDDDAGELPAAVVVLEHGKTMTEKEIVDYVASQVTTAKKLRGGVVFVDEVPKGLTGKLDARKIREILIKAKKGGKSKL

[6] = luciferase reporter signal suppression in cells – H4 neuroglioma cells, luminescence, dose response (AID 1990); format: functional, cell-based
[7] = alpha-synuclein stem-loop luciferase translation blockers – H4 neuroglioma cells, luminescence, confirmation (AID 1988); format: functional, cell-based
[8] = Luminescence Cell-Based Dose Confirmation HTS to Identify Inhibitors of Platelet Dense Granule Release. [Related pubchem assays: 1663 (Primary HTS), 1678 (Summary of Project)]; format: functional
[9] = Luminescence Cell-Based Dose Retest to Confirm Inhibitors of Cancer Stem Cells. [Related pubchem assays (depositor defined):AID2717, AID2721]; format: functional; details: Homo sapiens
[10] = molecular target: T1, Ubiquitin-conjugating enzyme E2 N (Homo sapiens, UniProt P61088); format: functional;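 further: Dose-response confirmation in a TR-FRET assay detecting UBC13-driven polyubiquitin chain formation, inhibition measured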
T1 sequence (P61088 whole entry): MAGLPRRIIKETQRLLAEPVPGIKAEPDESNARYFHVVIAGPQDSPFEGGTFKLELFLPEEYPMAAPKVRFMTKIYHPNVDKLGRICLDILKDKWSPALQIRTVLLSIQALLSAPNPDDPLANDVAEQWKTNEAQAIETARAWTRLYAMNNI

[11] = molecular target: Induced myeloid leukemia cell differentiation protein Mcl-1 (Homo sapiens, UniProt Q07820); format: functional
Chain of Induced myeloid leukemia cell differentiation protein Mcl-1 (Q07820 whole entry): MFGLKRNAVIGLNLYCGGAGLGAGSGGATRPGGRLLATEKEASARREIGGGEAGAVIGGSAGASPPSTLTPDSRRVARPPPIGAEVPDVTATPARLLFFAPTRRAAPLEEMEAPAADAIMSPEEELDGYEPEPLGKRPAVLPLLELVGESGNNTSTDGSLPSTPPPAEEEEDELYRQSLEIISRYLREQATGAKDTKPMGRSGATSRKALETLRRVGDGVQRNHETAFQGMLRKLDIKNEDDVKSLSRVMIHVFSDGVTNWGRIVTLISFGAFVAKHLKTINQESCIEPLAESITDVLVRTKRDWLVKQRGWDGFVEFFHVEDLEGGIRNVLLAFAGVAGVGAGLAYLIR

[12] = molecular target: T2, Heat shock factor protein 1 (Mus musculus, UniProt P38532); experiment: enhancement of HSF1-driven luciferase signal – cell-based, NIH3T3, luminescence, dose retest, confirmation (AID 435004); format: functional;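 further: stress induced by proteasome inhibitor MG132 added 30 min after compound; luciferase reporter driven by HSF1 response element in NIH3T3 cells; actives raise luminescence as potentiators of the MG132 stress response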
T2 sequence (P38532 whole entry): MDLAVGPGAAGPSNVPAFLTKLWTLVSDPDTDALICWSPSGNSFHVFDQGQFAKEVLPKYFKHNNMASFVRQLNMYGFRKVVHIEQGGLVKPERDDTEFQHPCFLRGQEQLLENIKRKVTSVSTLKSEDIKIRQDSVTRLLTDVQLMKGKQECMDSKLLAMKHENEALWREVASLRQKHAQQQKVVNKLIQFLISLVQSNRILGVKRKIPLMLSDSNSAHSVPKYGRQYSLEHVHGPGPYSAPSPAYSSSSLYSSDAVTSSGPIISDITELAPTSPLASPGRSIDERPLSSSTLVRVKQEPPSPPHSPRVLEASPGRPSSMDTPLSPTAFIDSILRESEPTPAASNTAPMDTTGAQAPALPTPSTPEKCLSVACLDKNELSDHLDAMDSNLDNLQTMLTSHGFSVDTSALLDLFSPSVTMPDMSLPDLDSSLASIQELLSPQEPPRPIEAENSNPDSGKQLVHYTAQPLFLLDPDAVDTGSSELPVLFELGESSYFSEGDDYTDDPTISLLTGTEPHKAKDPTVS

[13] = molecular target: Cytochrome P450 2C19 (Homo sapiens, UniProt P33261); experiment: Cytochrome panel assay with activity outcomes. Panel member name: p450-cyp2c19 Compounds with AC50 equal or less than 10 uM are considered active; format: functional; details: read-out: AC50
Chain of Cytochrome P450 2C19 (P33261 whole entry): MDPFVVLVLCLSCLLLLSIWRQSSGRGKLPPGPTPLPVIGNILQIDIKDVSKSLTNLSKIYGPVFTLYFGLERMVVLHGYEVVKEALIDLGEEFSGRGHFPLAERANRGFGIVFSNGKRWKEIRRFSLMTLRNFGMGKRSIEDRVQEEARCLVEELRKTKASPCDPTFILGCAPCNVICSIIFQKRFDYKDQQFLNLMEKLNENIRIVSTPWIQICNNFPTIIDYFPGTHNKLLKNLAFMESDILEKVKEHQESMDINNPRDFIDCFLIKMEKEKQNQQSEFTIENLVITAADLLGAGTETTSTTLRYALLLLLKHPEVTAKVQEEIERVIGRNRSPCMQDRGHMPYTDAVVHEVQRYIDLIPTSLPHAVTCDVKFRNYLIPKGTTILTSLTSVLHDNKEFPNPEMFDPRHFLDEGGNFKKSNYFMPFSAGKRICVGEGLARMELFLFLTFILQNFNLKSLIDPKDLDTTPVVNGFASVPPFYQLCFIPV

[14] = molecular target: T3, Rac GTPase-activating protein 1 (Homo sapiens, UniProt Q9H0H5); experiment: blockers of MgcRacGAP-driven Rac1 GTP hydrolysis – biochemical, ADP Hunter fluorescence, primary and confirmatory, confirmation (AID 624330); format: functional
T3 sequence (Q9H0H5 whole entry): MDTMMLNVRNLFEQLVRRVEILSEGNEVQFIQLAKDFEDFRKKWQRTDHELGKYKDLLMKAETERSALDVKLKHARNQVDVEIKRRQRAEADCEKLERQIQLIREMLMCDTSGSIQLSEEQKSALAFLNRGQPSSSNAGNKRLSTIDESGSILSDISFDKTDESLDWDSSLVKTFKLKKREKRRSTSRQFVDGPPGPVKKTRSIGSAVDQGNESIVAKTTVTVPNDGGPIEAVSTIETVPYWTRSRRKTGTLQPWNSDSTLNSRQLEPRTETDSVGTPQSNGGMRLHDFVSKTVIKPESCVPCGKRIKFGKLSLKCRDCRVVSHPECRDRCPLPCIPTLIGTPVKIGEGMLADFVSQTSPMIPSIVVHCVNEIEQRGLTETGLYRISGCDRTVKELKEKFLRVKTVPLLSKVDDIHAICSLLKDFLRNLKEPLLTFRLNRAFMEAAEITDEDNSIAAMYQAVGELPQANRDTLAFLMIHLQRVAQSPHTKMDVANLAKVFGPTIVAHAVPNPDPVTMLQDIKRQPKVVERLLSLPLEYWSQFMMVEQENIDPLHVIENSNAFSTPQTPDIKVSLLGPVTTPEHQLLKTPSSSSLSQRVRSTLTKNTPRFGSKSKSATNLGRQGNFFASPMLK

[15] = tested on: H9c2; experiment: cells; format: functional, cell-based; details: Rattus norvegicus, H9c2, Myocardium;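 further: confirmatory concentration-response retest of ultra-high-throughput screening hits for modulation of myocardial damage; cell death induced by hydrogen peroxide oxidative stress; compound pretreatment for 60 min then peroxide exposure for 2 h; potency is for protecting the cells against peroxide damage rather than for killing them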
[16] = molecular target: T4, Polyadenylate-binding protein 1 (Homo sapiens, UniProt P11940); experiment: MLLE binding blockers, Cy5 peptide tracer – biochemical, fluorescence polarization, Cy5-PAM2 peptide, secondary, miRNA deadenylation inhibitor project, dose response (AID 602260); format: functional; details: read-out: IC50_Mean
T4 sequence (P11940 whole entry, the tested form may be a part): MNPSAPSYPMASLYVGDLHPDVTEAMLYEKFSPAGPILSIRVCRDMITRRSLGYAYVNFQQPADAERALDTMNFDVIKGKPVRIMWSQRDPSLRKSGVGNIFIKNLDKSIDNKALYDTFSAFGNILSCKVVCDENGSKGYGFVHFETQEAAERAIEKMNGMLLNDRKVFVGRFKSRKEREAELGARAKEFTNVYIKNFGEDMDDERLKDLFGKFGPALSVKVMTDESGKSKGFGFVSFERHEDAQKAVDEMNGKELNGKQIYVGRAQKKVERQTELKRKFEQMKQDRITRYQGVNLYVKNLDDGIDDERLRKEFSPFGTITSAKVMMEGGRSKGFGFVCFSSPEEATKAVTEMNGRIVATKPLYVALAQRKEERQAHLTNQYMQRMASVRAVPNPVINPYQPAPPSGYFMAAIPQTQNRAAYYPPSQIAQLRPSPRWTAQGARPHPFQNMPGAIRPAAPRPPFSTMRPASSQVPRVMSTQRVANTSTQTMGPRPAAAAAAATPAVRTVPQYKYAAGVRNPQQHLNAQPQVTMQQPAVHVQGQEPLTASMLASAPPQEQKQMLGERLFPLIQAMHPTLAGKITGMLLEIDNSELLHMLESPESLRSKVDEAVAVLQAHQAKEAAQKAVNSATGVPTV

[17] = molecular target: T4, Polyadenylate-binding protein 1; experiment: MLLE domain peptide-binding blockers, IC50 – biochemical, fluorescence polarization, FITC-PAM2 peptide, dose response (AID 602259); format: functional; details: read-out: IC50_Mean
[18] = NIH-3T3 fibroblast cytotoxicity, dose response, cytotoxicity control, cell-based, fluorescence, Alamar Blue, secondary assay (AID 2327); format: functional;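 further: NIH-3T3 mouse fibroblasts cultured with fluconazole at 8 µg/mL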
[19] = fluconazole-exposed Candida albicans growth modulators – fluorescence, retest, confirmation (AID 2467); format: functional, cell-based

Compound | GI50 [1] | GI50 [2] | GI50 [3] | IC50 [10] | also measured
C=C1C(=O)OC2CC1CCC1(C)OC1CCC(C)=CCCC2(C)O (centres undefined) | 1.08 µM (active) | 4.35 µM (inactive) | 0.463 µM (active) | – | –
Cc1nc(=O)n2c(c1C(=O)Nc1ccc(Cl)cc1)NCC2 | > 31.6 µM (inactive) | – | – | – | –
c1ccc2nc(-c3ccc(N4CCOCC4)cc3)ccc2c1 | – | – | – | – | EC50 [4]: 0.757 µM (active); EC50 [5]: 0.793 µM (active); EC50 [6]: 4.01 µM (inconclusive); EC50 [7]: 0.413 µM (inconclusive); EC50 [8]: 3.7 µM (active)
CCCCCc1cc(=O)oc2c(C(CCN3CCCCC3)c3cc(OC)c(OC)c(OC)c3)c(OC)cc(OC)c12 (centres undefined) | – | – | – | > 20 µM (inactive) | AC50 [9]: 6.58 µM (active)
ClCc1ccc2ccc3ccc(CCl)nc3c2n1 | 1.51 µM (inactive) | 1.87 µM (inactive) | 0.883 µM (active) | – | –
Cc1cc(C(=O)NCCN(C)C)c2nc3ccccc3cc2c1 | 0.0418 µM (active) | 0.519 µM (active) | 0.341 µM (active) | – | –
CC[C@@H](C)[C@@H]1CN([C@@H](CN2CCC[C@H]2CN2C(N)=NC[C@H]2CC(C)C)C(C)C)C(=N)N1CCCC1CCCC1 | – | – | – | > 20 µM (inactive) | –
CCOc1ccc(NC(=O)CCCOc2cc(=O)n(C)c3ccccc23)cc1 | – | – | – | > 20 µM (inactive) | –
CC1=C2C3OC(=O)C(C)C3CCC2(C)C=C/C1=N\c1ccccc1 (centres undefined) | > 100 µM (inactive) | > 100 µM (inactive) | > 100 µM (inactive) | – | –
NS(=O)(=O)c1ccc(CCNC(=O)c2cc(-c3ccco3)nc3ccccc23)cc1 | – | – | – | > 20 µM (inactive) | –
O=C(c1ccccc1)c1ccc2nc(-c3ccco3)c(-c3ccco3)nc2c1 | – | – | – | – | IC50 [11]: 6.46 µM (active); EC50 [12]: 32.3 µM (active)
CC(O)CCC(=O)c1ccoc1 (centres undefined) | 4940 µM (inactive) | 7230 µM (inactive) | 3660 µM (inactive) | – | –
CN(C)c1ccc(NC(=O)c2cccc(N3C(=O)C4C5C=CC(C5)C4C3=O)c2)cc1 (centres undefined) | – | – | – | – | IC50 [11]: 1.89 µM (not active); AC50 [13]: 25.1 µM (inconclusive); IC50 [14]: 49.2 µM (active)
CC1NC(=O)C(C)C(c2ccccc2)N(N=O)C1c1ccccc1 (centres undefined) | 21 µM (inactive) | > 100 µM (inactive) | 0.933 µM (active) | – | –
Cc1ccc(NC(=O)C[S+]([O-])CC(=O)NCCCc2ccccc2)cc1Cl (centres undefined) | – | – | – | > 20 µM (inactive) | –
O=C1C=CC(=O)c2c(Cl)ccc(O)c21 | 0.499 µM (active) | 25.6 µM (inactive) | 0.344 µM (active) | – | –
CCOC(=O)CSc1nc2ccccc2c(=O)n1NC(=O)c1ccccc1 | – | – | – | > 20 µM (inactive) | –
O=c1cc(COc2ncnc3c(Cl)cc(Cl)cc23)nc2sccn12 | – | – | – | – | IC50 [15]: > 79 µM (inactive); EC50 [5]: > 112 µM (not active); EC50 [8]: > 112 µM (not active)
CC(C)C[C@@H]1CN=C(N)N1C[C@@H]1CCCN1C[C@H](C)N1C[C@@H](Cc2ccccc2)N(CCCC2CCCC2)C1=N | – | – | – | > 20 µM (inactive) | –
COc1ccc2cc1Oc1ccc(cc1)C[C@H]1c3cc(c(OC)cc3CCN1C)Oc1c(OC)c(OC)cc3c1[C@H](C2)N(C)CC3 [FANCHININ] | 1.77 µM (inactive) | 7.06 µM (inactive) | 3.05 µM (inactive) | – | –
COc1cc(NS(=O)(=O)c2ccc(NC(=S)NC(=O)c3sc4cc(F)ccc4c3Cl)cc2)nc(OC)n1 | – | – | – | – | IC50 [11]: 4.37 µM (not active); IC50 [16]: > 66 µM (inactive); IC50 [17]: > 66 µM (inactive)
C/C(=N\NC(=O)c1cccc(N/N=C(\C)c2cc(O)ccc2O)c1)c1cc(O)ccc1O | – | – | – | – | IC50 [11]: 3.43 µM (active); IC50 [14]: 67.8 µM (active); EC50 [18]: 10.8 µM (active); EC50 [19]: > 38 µM (not active); EC50 [12]: > 260 µM (inactive)

Source: ChEMBL document CHEMBL1201862, “PubChem BioAssay data set” (2004)
